{"source": "patent US20230049145A1", "about": "“GLYCOSYLATED POLYPEPTIDES” (FRESENIUS KABI DEUTSCHLAND GMBH, priority 2019, published 2023)", "key": {"[1]": {"test_system": "CHO cells", "assay": "Glycosylation profile of recombinant human EPO produced in CHO cells in perfusion culture supplemented with kifunensine", "format": "cell-based, Chinese hamster", "conditions": "CHO perfusion culture 18 days, 12 μg/L kifunensine from day 0", "protocol": "CHO cells transfected with expression vectors encoding recombinant human EPO (UniProt Accession No. P01588, Sequence Version 1, Entry Version 195) are cultured in perfusion bioreactors for 18 days under standard operating parameters. The culture medium is supplemented with 12 μg/L kifunensine from day 0.\nRecombinant human EPO produced during the culture period is harvested throughout the production phase and at the end of the culture period, a sample is obtained to determine the glycosylation profile. The resultant recombinant human EPO has increased mannosylation and sialylation compared to that produced in cultures without kifunensine."}, "[2]": {"test_system": "Sp2/0 cells", "assay": "Sialylation of human IgG1 antibody (golimumab) produced in Sp2/0 cells in perfusion culture supplemented with kifunensine; glycan analysis by HILIC", "format": "cell-based, Murine", "conditions": "IgG1 (golimumab) from Sp2/0 cells", "protocol": "(§1) Murine Sp2/0 cells transfected with expression vectors encoding SEQ ID NOs: 1 and 2 (which correspond to the heavy and light chains respectively of the human anti-TNFα IgG1 monoclonal antibody, golimumab) were cultured in perfusion bioreactors for 30 days under standard operating parameters. To examine the effect of kifunensine on the sialylation levels of the resulting IgG1, the perfusion cultures were supplemented with either 3, 6, 9, or 12 μg/L kifunensine (corresponding to 13 nM, 26 nM, 39 nM or 52 nM). A control culture was also maintained under the same conditions albeit in the absence of kifunensine.\n(§2) On culture day 18, samples were taken from the perfusion bioreactors and the percentage sialylation of the IgG1 antibodies was determined by glycan analysis. Briefly, antibodies were first purified using protein A chromatography, glycans were then enzymatically released from the antibody, fluorescently labelled with 2-aminobenzamide and analysed using hydrophilic interaction chromatography (HILIC) based methods."}, "[3]": {"test_system": "CHO cells", "assay": "Cell viability of CHO fed-batch cultures supplemented with kifunensine", "format": "cell-based, Chinese hamster", "conditions": "CHO fed-batch cultures, 30, 40, 50 or 60 nM kifunensine added on day 3", "protocol": "(§3) CHO cells transfected with expression vectors encoding SEQ ID NOs: 3 and 4 (which correspond to the heavy and lights chains respectively of the human anti-RANKL IgG2 monoclonal antibody, denosumab) were cultured in bioreactors using standard fed-batch methods. To examine the effects of kifunensine on the Fc-glycan sialylation levels of the resulting IgG2, the cultures were supplemented with either 30, 40, 50 or 60 nM kifunensine on day 3 of the culture. A control culture was also maintained under the same conditions albeit in the absence of kifunensine."}, "[4]": {"test_system": "CHO cells", "assay": "Fc-glycan sialylation of human IgG2 antibody (denosumab) produced in CHO cells in fed-batch culture supplemented with kifunensine", "format": "cell-based, Chinese hamster", "conditions": "IgG2 (denosumab) from CHO cells, day 20, FIG. 2", "protocol": "as §2, §3\nOn day 20, samples were taken from bioreactors and the percentage Fc-glycan sialylation of the IgG2 antibodies was determined as described in Example 1."}, "[5]": {"test_system": "Sp2/0 cells", "assay": "Cell viability of Sp2/0 perfusion cultures supplemented with kifunensine", "format": "cell-based, Murine", "conditions": "Sp2/0 perfusion cultures, 3, 6, 9 or 12 μg/L kifunensine (13, 26, 39 or 52 nM), 30 days", "protocol": "as §1"}}}
{"smiles": "O=C1N[C@@H]2[C@@H](O)[C@@H](O)[C@H](O)[C@@H](CO)N2C1=O", "note": "[kifunensine, (5R,6R,7S,8R,8aS)-6,7,8-trihydroxy-5-(hydroxymethyl)-1,5,6,7,8,8a-hexahydroimidazo[1,2-a]pyridine-2,3-dione]", "values": [{"measurement": "mannosylation of recombinant human EPO compared to cultures without kifunensine", "setting": "[1]", "value": "increased"}, {"measurement": "sialylation of recombinant human EPO compared to cultures without kifunensine", "setting": "[1]", "value": "increased"}, {"measurement": "kifunensine concentration giving peak sialylation levels", "setting": "[2]; culture day 18, FIG. 1", "value": 12, "unit": "µg/L"}, {"measurement": "kifunensine concentration at which an increase in sialylation compared to control was evident", "setting": "[2]; culture day 18, FIG. 1, particularly 9 and 12 μg/L", "value": "≥ 6", "unit": "µg/L"}, {"measurement": "kifunensine concentration giving peak sialylation levels (molar)", "setting": "[2]; culture day 18, conversion of 12 μg/L", "value": "~52", "unit": "nM"}, {"measurement": "impact on cell viability", "setting": "[3]", "value": "No significant impact on cell viability"}, {"measurement": "kifunensine concentration at which an increase in Fc-glycan sialylation compared to control was evident", "setting": "[4]", "value": "> 40", "unit": "nM"}, {"measurement": "kifunensine concentration giving peak Fc-glycan sialylation", "setting": "[4]", "value": 60, "unit": "nM"}, {"measurement": "impact on cell viability", "setting": "[5]", "value": "No significant impact on cell viability"}]}
